Experimental data: paper PMC4816952, “[^18F]FE@SNAP—a specific PET tracer for melanin-concentrating hormone receptor 1 imaging?” (EJNMMI Research, 2016)
Marks after values point to notes of the source that are not given here.

Experiments:
MCHR1 [1] = target: T1, MCHR1 (Rattus norvegicus, UniProt P97639); test: Ex vivo brain autoradiography after IV injection into the jugular vein of awake rats; type: in vivo, Sprague-Dawley rats; design: from tissue; host or cells: rat brain (hypothalamus, ventricular system) and peripheral organs after in vivo injection; details: for Ratio Hypothalamus/non-target / Ratio Ventricle/non-target: ratio of ROIs (DLU/mm^2), 45 min after injection, n = 3
Procedure: (§1) Conscious and freely moving rats of the baseline and blocking groups were always examined simultaneously: rats of the baseline group (n = 3) received vehicle (400 μL), and rats of the blocking group (n = 3) received SNAP-7941 (15 mg/kg; freshly dissolved in 400 μL) via the jugular vein 30 min prior to tracer application. Via the jugular vein, 51.33 ± 26.2 MBq of [^18F]FE@SNAP (specific activity 12.3–43.1 GBq/μmol; radiochemical purity ≥95 %; 30–100 μL) was then administered to all rats. After 45 min, rats were sacrificed by IV ketamine injection and decapitated, and the brains were removed and immediately quick frozen in isopentane (−45 °C) for ex vivo autoradiography. Other organs including the eyes, tongue, muscle, epidermal white adipose tissue (WATep), heart, lung, stomach, pancreas, liver, duodenum, colon, spleen, kidneys, adrenals, testis, bladder and bone as well as blood and urine were removed, weighed and measured in a gamma counter (2480 WIZARD^2, PerkinElmer). Radioactivity concentrations were normalized to dose and weight and expressed as percent injected dose per gram (%ID/g). To determine significant differences, a two-tailed t test with […] was performed using the statistics add-on in Microsoft Excel® 2013. A value of P < 0.05 was considered as significant.
Whole rat brains (n = 6) were cut in a cryo-microtome (Microm HM 560, Thermo Scientific) into 50-μm-thick slices and thaw-mounted onto superfrost slides (Menzel-Gläser SUPERFROST® PLUS, Thermo Scientific). Samples were placed on Phosphor Imager plates (Multisensitive Phosphor Screens Long Type MS, PPN 7001724, PerkinElmer) for an exposure period of 18 h and then analysed with a Cyclone Phosphor Imager (Cyclone Plus Storage Phosphor System, PerkinElmer). Data analysis was performed with OptiQuant® data processing software Version 5.0. Due to high-MCHR1 appearance, special emphasis was laid on the hypothalamus and the ventricular system. […] To facilitate comparison, manually defined template ROIs fitting to all slices (30 slices/brain; bregma −1.0 to −2.5 mm) were applied. […] In detail, ratios of hypothalamus/non-target and ventricle/non-target were calculated. Significant differences were calculated as described before.
Fig. 2 Scheme of the ROIs for calculation of ratios. 1 (yellow): ventricular system; 2 (green): hypothalamic area; 3 (pink): non-target region; and 4 (orange): whole brain. It is noteworthy that ROIs 1 and 2 include the target areas as well as some background areas, due to varying target size throughout the different brain levels (bregma)

MCHR1 [2] = target: T1, MCHR1; test: Preliminary small-animal PET/MR imaging; type: in vivo; design: from tissue; host or cells: living rat (in vivo PET imaging); details: healthy anaesthetized rat, baseline conditions, tail vein bolus
Procedure: An anaesthetized rat (with 1.5–2.5 % isoflurane) was immobilized in a multimodal animal carrier unit (MACU; medres®—medical research GmbH, Cologne, Germany) and maintained at a body temperature of 37 °C throughout the whole experiment. [^18F]FE@SNAP (47.64 ± 1.23 MBq) was injected as a bolus via the lateral tail vein, and dynamic PET imaging (Siemens Inveon preclinical μPET/SPECT/CT system) was performed over 60 min. Immediately afterwards, T1-weighted high-resolution axial, coronary and sagittal brain MRI scans were performed using a Bruker BioSpec 94/30 USR small-animal MR system (Bruker BioSpin GmbH, Karlsruhe, Germany).

human MCHR1 = target: human MCHR1; design: method as in PMID 24106662; details: CHO cells expressing the human MCHR1; cited from earlier work
[3] = Blood metabolite analysis by radio-TLC; type: in vivo, Sprague-Dawley rats; details: 45 min after tracer application, baseline group, n = 3, plasma
Procedure: For analysis of potential circulating metabolites, blood samples from the baseline group were collected into heparinized tubes and immediately stored on ice before processing. The blood was centrifuged (Hettich Rotanta/TRC; 3400×g, 4 min) to separate cellular components. Sample cleanup was performed by vortexing plasma with the equivalent amount of acetonitrile and by subsequent centrifugation (Hettich Universal 30RF; 23,000×g, 3 min) to remove precipitated proteins. The obtained supernatant was applied to radio-thin-layer chromatography (radio-TLC silica gel plates, mobile phase acetonitrile/water 70/30 v/v, application volume 2 μL on origin) and analysed via a Canberra-Packard Instant Imager.

[4] = Biodistribution 45 min after IV injection; type: in vivo, Sprague-Dawley rats; details: rats, 45 min after injection
Procedure: as §1

MCHR2 = target: MCHR2; design: method as in PMID 24106662; details: second MCH receptor; cited from earlier work
[5] = blocking with SNAP-7941 15 mg/kg 30 min prior

T1 sequence (P97639 whole entry): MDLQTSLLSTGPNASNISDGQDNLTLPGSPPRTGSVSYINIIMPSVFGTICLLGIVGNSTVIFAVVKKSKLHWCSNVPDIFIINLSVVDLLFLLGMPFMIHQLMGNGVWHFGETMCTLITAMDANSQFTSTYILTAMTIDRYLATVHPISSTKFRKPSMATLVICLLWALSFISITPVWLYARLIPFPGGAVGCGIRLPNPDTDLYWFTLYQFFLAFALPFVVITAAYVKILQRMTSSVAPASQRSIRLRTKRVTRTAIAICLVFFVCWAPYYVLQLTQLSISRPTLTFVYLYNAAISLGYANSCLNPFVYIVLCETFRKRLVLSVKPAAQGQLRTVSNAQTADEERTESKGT

Ratio Hypothalamus/non-target (MCHR1 [1]; baseline (vehicle)): 2.14 ± 0.9 | Ratio Ventricle/non-target (MCHR1 [1]; baseline (vehicle)): 2.20 ± 0.4 | whole-brain uptake, blocking group versus baseline animals (MCHR1 [1]; blocking with 15 mg/kg SNAP-7941, n = 3 per group): significantly higher | Ratio Hypothalamus/non-target (MCHR1 [1]; [5]): 1.58 ± 0.5^a | Ratio Ventricle/non-target (MCHR1 [1]; [5]): 1.38 ± 0.2^a | parent compound in the blood [3]: 51.50 ± 5.5% | defluorination / uptake of ^18F-fluoride into the bone [4]: no defluorination
SMILES: COCC1=C(C(=O)OCC[18F])C(c2ccc(F)c(F)c2)N(C(=O)NCCCN2CCC(c3cccc(NC(C)=O)c3)CC2)C(=O)N1 (stereo not shown) [[^18F]FE@SNAP]
tracer uptake in brain (small-animal PET) (MCHR1 [2]): high tracer uptake in the ventricular system | Kd (human MCHR1): 2.9 nM | Ki (MCHR2): > 1000 nM
